Experimental data: patent US4217274A, “Methoxyethoxymethyl esters of penicillins” (Bristol-Myers Company, priority 1978, dated 1980)
Values after ≈ are worked out from the molar mass of the structure shown. Read-outs that look alike come from different tables or passages of the source.

Tests used:
Str. pyogenes = assay: MIC, antibiotic dilution technique (agar); type: cell-based, S. pyogenes; settings: Streptococcus pyogenes
Source text: (§1) Bacteria. The organisms, preponderantly of recent clinical origin, were obtained from numerous sources of broad geographical distribution. Obligate anaerobes were maintained in Egg Meat Medium (Difco); Mycobacterium was stored on Lowenstein Medium (Jensen Modification; Difco). The techniques of storing all other organisms have been described previously [Leitner et al., BL-S640, A Cephalosporin with a Broad Spectrum of Antibacterial Activity: Properties in vitro, Antimicrob. Agents Chemother., 7, 298-305 (1975)].
(§2) Antibiotic spectrum. The growth-inhibitory activity of the compounds was determined by the antibiotic dilution technique. Procedures were as follows:
(§3) Aerobic organisms (excluding Mycobacterium). Except for Haemophilus and Neisseria, the assay was performed in Mueller-Hinton Medium (Difco). For fastidious organisms, i.e., Streptococcus, Listeria, Pasteurella, Bordetella and Vibrio, the medium was supplemented with 4% defibrinated sheep blood. The antibiotic susceptibility of Haemophilus and Neisseria was determined in GC Medium Base (BBL) supplemented with 1% Hemoglobin (BBL) and 1% Isovitalex (BBL).
(§4) Overnight broth cultures of an exponentially growing culture (Neisseria) served as the source of inoculum. A volume of approximately 0.003 ml. of the undiluted or diluted culture was applied to the surface of the antibiotic-containing agar plates with the inoculator of Steers et al., An Inocula Replicating Apparatus for Routine Testing of Bacterial Susceptibility to Antibiotics, Antibiot. Chemother., 9, 307-311, (1959). Cultures of Neisseria, Streptococcus pneumoniae, S. viridans and S. pyogenes were used without dilution; those of all other organisms were diluted 100-fold. The inoculum contained about 10^3 viable cells for Neisseria, 10^5 for S. pneumoniae and S. pyogenes, 10^6 for S. viridans and 10^4 for all other species.

E. Coli [1] = assay: MIC, antibiotic dilution technique (agar); type: cell-based; settings: Escherichia coli
Source text: as §1, §2, §3, §4

Ent. cloacae = assay: MIC, antibiotic dilution technique (agar); type: cell-based; settings: Enterobacter cloacae, read-out: MIC
Source text: as §1, §2, §3, §4

K. pneumoniae [2] = assay: MIC, antibiotic dilution technique (agar); type: cell-based; settings: Klebsiella pneumoniae, read-out: MIC
Source text: as §1, §2, §3, §4

Pr. mirabilis = assay: MIC, antibiotic dilution technique (agar); type: cell-based; settings: Proteus mirabilis
Source text: as §1, §2, §3, §4

Pr. morganii = assay: MIC, antibiotic dilution technique (agar); type: cell-based; settings: Morganella morganii, read-out: MIC
Source text: as §1, §2, §3, §4

Pr. rettgeri = assay: MIC, antibiotic dilution technique (agar); type: cell-based; settings: Providencia rettgeri
Source text: as §1, §2, §3, §4

Pr. vulgaris = assay: MIC, antibiotic dilution technique (agar); type: cell-based; settings: Proteus vulgaris
Source text: as §1, §2, §3, §4

Ps. aeruginosa = assay: MIC, antibiotic dilution technique (agar); type: cell-based; settings: Pseudomonas aeruginosa, read-out: MIC
Source text: as §1, §2, §3, §4

S. aureus Meth-Res. = assay: MIC, antibiotic dilution technique (agar); type: cell-based; settings: Staphylococcus aureus
Source text: as §1, §2, §3, §4

S. aureus Pen-Res. = assay: MIC, antibiotic dilution technique (agar); type: cell-based; settings: Staphylococcus aureus, read-out: MIC
Source text: as §1, §2, §3, §4

S. aureus = assay: MIC, antibiotic dilution technique (agar); type: cell-based; settings: Staphylococcus aureus
Source text: as §1, §2, §3, §4

Ser. marcescens = assay: MIC, antibiotic dilution technique (agar); type: cell-based; settings: Serratia marcescens
Source text: as §1, §2, §3, §4

Str. faecalis = assay: MIC, antibiotic dilution technique (agar); type: cell-based; settings: Enterococcus faecalis
Source text: as §1, §2, §3, §4

Str. pneumoniae = assay: MIC, antibiotic dilution technique (agar); type: cell-based; settings: Streptococcus pneumoniae
Source text: as §1, §2, §3, §4

E. Coli [3] = assay: MIC, antibiotic dilution technique (agar), Table 4; type: cell-based; settings: Escherichia coli
Source text: as §1, §2, §3, §4

E. cloacae = assay: MIC, antibiotic dilution technique (agar), Table 4; type: cell-based; settings: Enterobacter cloacae; Table 4, 2 strains, geometric mean where applicable
Source text: as §1, §2, §3, §4

K. pneumoniae [4] = assay: MIC, antibiotic dilution technique (agar), Table 4; type: cell-based; settings: Klebsiella pneumoniae, Table 4, K. pneumoniae, read-out: MIC
Source text: as §1, §2, §3, §4

P. mirabilis = assay: MIC, antibiotic dilution technique (agar), Table 4; type: cell-based; settings: Proteus mirabilis, Table 4, P. mirabilis, geometric mean where applicable, read-out: MIC
Source text: as §1, §2, §3, §4

P. rettgeri = assay: MIC, antibiotic dilution technique (agar), Table 4; type: cell-based; settings: Providencia rettgeri
Source text: as §1, §2, §3, §4

[5] = system: S. aureus (lacking penase); assay: MIC, antibiotic dilution technique (agar), Table 4; type: cell-based; settings: Staphylococcus aureus; Table 4, 6 strains, geometric mean where applicable
Source text: as §1, §2, §3, §4

S. faecalis = assay: MIC, antibiotic dilution technique (agar), Table 4; type: cell-based; settings: Enterococcus faecalis; Table 4, 6 strains, geometric mean where applicable
Source text: as §1, §2, §3, §4

S. marcescens = assay: MIC, antibiotic dilution technique (agar), Table 4; type: cell-based
Source text: as §1, §2, §3, §4

S. pneumoniae = assay: MIC, antibiotic dilution technique (agar), Table 4; type: cell-based; settings: Streptococcus pneumoniae; Table 4, 7 strains, geometric mean where applicable
Source text: as §1, §2, §3, §4

S. pyogenes = assay: MIC, antibiotic dilution technique (agar), Table 4; type: cell-based; settings: Streptococcus pyogenes; Table 4, 6 strains, geometric mean where applicable
Source text: as §1, §2, §3, §4

S. viridans = assay: MIC, antibiotic dilution technique (agar), Table 4; type: cell-based; settings: Streptococcus viridans
Source text: as §1, §2, §3, §4

[6] = system: Streptococcus sp. (β-hemolytic); assay: MIC, antibiotic dilution technique (agar), Table 4; type: cell-based; settings: Table 4, 6 strains, geometric mean where applicable
Source text: as §1, §2, §3, §4

p. vulgaris = assay: MIC, antibiotic dilution technique (agar), Table 4; type: cell-based; settings: Proteus vulgaris; Table 4, 2 strains, geometric mean where applicable
Source text: as §1, §2, §3, §4

COCCOCOC(=O)[C@@H]1N2C(=O)[C@@H](N3C(=O)[C@@H](c4ccccc4)NC3(C)C)[C@H]2SC1(C)C [RN-1492, Methoxyethoxymethyl Ester of Hetacillin]
MIC (Str. pyogenes; Table 1, Str. pyogenes): 0.008 mg/L (≈ 0.0168 µM) | MIC (E. Coli [1]; Table 1, E. Coli, first line): 2 mg/L (≈ 4.19 µM) | MIC (E. Coli [1]; Table 1, E. Coli, second line): 63 mg/L (≈ 132 µM) | MIC (Ent. cloacae; Table 1, Ent. cloacae, first line): 63 mg/L (≈ 132 µM) | MIC (Ent. cloacae; Table 1, Ent. cloacae, second line): 63 mg/L (≈ 132 µM) | MIC (K. pneumoniae [2]; Table 1, K. pneumoniae, first line): 63 mg/L (≈ 132 µM) | MIC (K. pneumoniae [2]; Table 1, K. pneumoniae, second line): 32 mg/L (≈ 67 µM) | MIC (Pr. mirabilis; Table 1, Pr. mirabilis): 0.25 mg/L (≈ 0.523 µM) | MIC (Pr. morganii; Table 1, Pr. morganni): 32 mg/L (≈ 67 µM) | MIC (Pr. rettgeri; Table 1, Pr. rettgeri): 16 mg/L (≈ 33.5 µM) | MIC (Pr. vulgaris; Table 1, Pr. vulgaris): 0.25 mg/L (≈ 0.523 µM) | MIC (Ps. aeruginosa; Table 1, Ps. aeruginosa, first line): 63 mg/L (≈ 132 µM) | MIC (Ps. aeruginosa; Table 1, Ps. aeruginosa, second line): 125 mg/L (≈ 262 µM) | MIC (S. aureus Meth-Res.; Table 1, S. aureus Meth-Res.): 63 mg/L (≈ 132 µM) | MIC (S. aureus Pen-Res.; Table 1, S. aureus Pen-Res.): > 125 mg/L | MIC (S. aureus; Table 1, S. aureus): 0.06 mg/L (≈ 0.126 µM) | MIC (S. aureus; Table 1, S. aureus + 50% serum): 0.13 mg/L | MIC (Ser. marcescens; Table 1, Ser. marcescens): 32 mg/L (≈ 67 µM) | MIC (Str. faecalis; Table 1, Str. faecalis): 0.5 mg/L (≈ 1.05 µM) | MIC (Str. pneumoniae; Table 1, Str. pneumoniae): 0.004 mg/L (≈ 0.00838 µM) | MIC (E. Coli [3]; 1 strain (first line)): 2 mg/L (≈ 4.19 µM) | MIC (E. Coli [3]; 1 strain (fourth line)): > 125 mg/L | MIC (E. Coli [3]; 1 strain (third line)): 63 mg/L (≈ 132 µM) | MIC (E. Coli [3]; 3 strains (second line), geometric mean where applicable): 5 mg/L (≈ 10.5 µM) | MIC (E. cloacae): > 125 mg/L | MIC (K. pneumoniae [4]; 1 strain (first line)): 63 mg/L (≈ 132 µM) | MIC (K. pneumoniae [4]; 1 strain (second line)): > 125 mg/L | MIC (P. mirabilis; 2 strains): > 125 mg/L | MIC (P. mirabilis; 4 strains): 4 mg/L (≈ 8.38 µM) | MIC (P. rettgeri; Table 4, P. retgeri, 2 strains (third line), geometric mean where applicable): 63 mg/L (≈ 132 µM) | MIC (P. rettgeri; Table 4, P. rettgeri, 1 strain (first line)): 0.25 mg/L (≈ 0.523 µM) | MIC (P. rettgeri; Table 4, P. rettgeri, 1 strain (second line)): 16 mg/L (≈ 33.5 µM) | MIC [5]: 0.18 mg/L (≈ 0.377 µM) | MIC (S. faecalis): 2 mg/L (≈ 4.19 µM) | MIC (S. marcescens; 1 strain (second line)): > 125 mg/L | MIC (S. marcescens; Serratia marcescens, 1 strain (first line), read-out: MIC): > 125 mg/L | MIC (S. pneumoniae): 0.032 mg/L (≈ 0.067 µM) | MIC (S. pyogenes): 0.027 mg/L (≈ 0.0565 µM) | MIC (S. viridans; Table 4, S. viridans, 1 strain (second line)): 0.25 mg/L (≈ 0.523 µM) | MIC (S. viridans; Table 4, S. viridans, 3 strains, geometric mean where applicable): 0.05 mg/L (≈ 0.105 µM) | MIC (S. viridans; Table 4, s. viridans, 1 strain (third line)): 0.5 mg/L (≈ 1.05 µM) | MIC [6]: 0.13 mg/L (≈ 0.272 µM) | MIC (p. vulgaris): 0.5 mg/L (≈ 1.05 µM)

COCCOCOC(=O)[C@@H]1N2C(=O)[C@@H](N3C(=O)[C@@H](c4ccc(O)cc4)NC3(C)C)[C@H]2SC1(C)C [RN-1493, Methoxyethoxymethyl Ester of Heta-Amoxicillin]
MIC (Str. pyogenes; Table 2, Str. pyogenes): 0.008 mg/L (≈ 0.0162 µM) | MIC (E. Coli [1]; Table 2, E. coli, first line): 2 mg/L (≈ 4.05 µM) | MIC (E. Coli [1]; Table 2, E. coli, second line): 63 mg/L (≈ 128 µM) | MIC (Ent. cloacae; Table 2, Ent. cloacae, first line): 63 mg/L (≈ 128 µM) | MIC (Ent. cloacae; Table 2, Ent. cloacae, second line): 63 mg/L (≈ 128 µM) | MIC (K. pneumoniae [2]; Table 2, K. pneumoniae, first line): 63 mg/L (≈ 128 µM) | MIC (K. pneumoniae [2]; Table 2, K. pneumoniae, second line): 63 mg/L (≈ 128 µM) | MIC (Pr. mirabilis; Table 2, Pr. mirabilis): 0.5 mg/L (≈ 1.01 µM) | MIC (Pr. morganii; Table 2, Pr. morganii): 16 mg/L (≈ 32.4 µM) | MIC (Pr. rettgeri; Table 2, Pr. rettgeri): 32 mg/L (≈ 64.8 µM) | MIC (Pr. vulgaris; Table 2, Pr. vulgaris): 0.5 mg/L (≈ 1.01 µM) | MIC (Ps. aeruginosa; Table 2, Ps. aeruginosa, first line): 63 mg/L (≈ 128 µM) | MIC (Ps. aeruginosa; Table 2, Ps. aeruginosa, second line): 63 mg/L (≈ 128 µM) | MIC (S. aureus Meth-Res.; Table 2, S. aureus Meth-Res.): 63 mg/L (≈ 128 µM) | MIC (S. aureus Pen-Res.; Table 2, S. aureus Pen-Res.): 125 mg/L (≈ 253 µM) | MIC (S. aureus; Table 2, S. aureus): 0.06 mg/L (≈ 0.122 µM) | MIC (S. aureus; Table 2, S. aureus + 50% serum): 0.25 mg/L | MIC (Ser. marcescens; Table 2, Ser. marcescens): 32 mg/L (≈ 64.8 µM) | MIC (Str. faecalis; Table 2, Str. faecalis): 0.5 mg/L (≈ 1.01 µM) | MIC (Str. pneumoniae; Table 2, Str. pneumoniae): 0.004 mg/L (≈ 0.0081 µM)
